Source: patent publication US20150174158A1, “[…] NITRIC OXIDE FOR TREATING RESPIRATORY DISEASES” (Advanced Inhalation Therapies (AIT) Ltd., priority 2012, published 2015)
Read-outs that look alike come from different tables or passages of the source.

Experiments:
[1] = Phase I safety study: hematology, blood chemistry, coagulation; type: in vivo, human; settings: baseline 0.15 (SD=0.12); SD=0.19; p=0.104
Description: (§1) After obtaining informed consent, treatment was initiated within 5 days of enrollment. Subjects were housed in a hospital ward and received 160 ppm gNO for 30 minutes every four hours (Q4h), five times a day, for five consecutive days by inhalation. Subjects returned for follow-up evaluations 3, 7 and 21 days after the final gNO administration. Subject safety was determined by monitoring vital signs, methemoglobin levels, lung function, blood chemistry, hematology, prothrombin time, inflammatory cytokine/chemokines levels and endothelial activation. These parameters were compared to baseline and at various time-points during and after gNO administration.
Hematological assessment included a complete blood count and differentials (hemoglobin, hematocrit, red blood cell count, white blood cell count, white blood cell differential, and platelet count) were obtained in order to monitor blood chemistry, hematology and inflammation measurements. […] The effect of gNO on coagulation was determined by the prothrombin time (PT) and its derived measures of prothrombin ratio (PR) and international normalized ratio (INR). […] Plasma cytokine levels were assessed using the human inflammation cytokine bead array kit (BD Bioscience, Canada). Plasma levels of angiopoietin Ang-1 and Ang-2 were determined by ELISA (R&D Systems, USA).

[2] = Phase I safety study: pulmonary function tests; type: in vivo, human
Description: as §1
Subjects underwent full pulmonary function tests (PFT), including lung diffusing capacity (DLCO) by a trained technician utilizing a calibrated pulmonary function system (Jaeger MasterScreen, VIASYS Healthcare, USA) on screening and days 2, 8, 12 and 26. Spirometry test (Microloop by Micro Medical, England) was performed on days 1, 3 and 4. Effect of gNO on lung function and DLCO was determined by changes from baseline, treatment days and follow up days. […]

[3] = tested on: TNF, IL-6, IL-8, IL-10, IL-1b and IL-12p70; assay: Phase I safety study: plasma cytokines by cytometric bead array; type: in vivo, human; settings: vs baseline, all sampling time points
Source text: Hematological assessment included a complete blood count and differentials (hemoglobin, hematocrit, red blood cell count, white blood cell count, white blood cell differential, and platelet count) were obtained in order to monitor blood chemistry, hematology and inflammation measurements. The blood chemistry profile included serum creatinine, and liver function tests such as aspartate aminotransferase (AST) serum glutamic oxaloacetic transaminase (SGOT), alkaline phosphatase, and gamma-glutamyl transferase (GGT). The effect of gNO on coagulation was determined by the prothrombin time (PT) and its derived measures of prothrombin ratio (PR) and international normalized ratio (INR). Heparinized plasma was collected at baseline and on days 1, 2, 4, and 5 of gNO administration, and on follow-up days 3, 7 and 21 and frozen at −80° C. Plasma cytokine levels were assessed using the human inflammation cytokine bead array kit (BD Bioscience, Canada). Plasma levels of angiopoietin Ang-1 and Ang-2 were determined by ELISA (R&D Systems, USA).
To assess whether gNO inhalation may cause inflammation or endothelial activation cytokines and the vascular endothelium activation factors Ang-1 and Ang-2 were quantified in peripheral plasma at baseline at various time points thereafter. […]

[4] = tested on: P. aeruginosa (ATCC); settings: 200 ppm gNO; saline; cited from earlier work
[5] = tested on: MRSA; settings: 200 ppm gNO; saline; cited from earlier work
[6] = tested on: S. aureus (Clinical); settings: 200 ppm gNO; saline; cited from earlier work
[7] = tested on: Klebsiella sp. #2; settings: 200 ppm gNO; saline; cited from earlier work
[8] = tested on: Klebsiella sp. #3; settings: 200 ppm gNO; saline; cited from earlier work
[9] = tested on: S. maltophilia; settings: 200 ppm gNO; saline; cited from earlier work
[10] = tested on: Enterobacter sp.; settings: 200 ppm gNO; saline; cited from earlier work
[11] = tested on: E. Coli; settings: 200 ppm gNO; saline; cited from earlier work
[12] = tested on: Mycobacterium; settings: 200 ppm gNO; saline; cited from earlier work
[13] = tested on: highly pathogenic Avian Influenza H7N3; settings: cited from earlier work
[14] = cited from earlier work; for mortality: 6 h/day, groups of 10 rats
[15] = gNO concentrations below 200 ppm, 6 hours/day for 28 days; cited from earlier work
[16] = tested on: broad range of microbes; settings: gNO at 160-200 ppm; in vitro, ex vivo and in animal models; cited from earlier work
[17] = tested on: Pseudomonas aeruginosa pneumonia; settings: 160 ppm gNO, intermittent 30 minute exposures; cited from earlier work

SMILES: [N]=O [gNO, nitric oxide]
- eosinophil cell numbers, end of study [1]: 0.19 giga/L
- pulmonary function tests, abnormalities ([2]; during and after gNO administration): did not reveal any abnormalities
- DLCO, FVC, TLC and RV ([2]; vs baseline): did not change from baseline
- FEV1 and maximum mid-expiratory flow (MMEF) ([2]; vs baseline during the course of the study): did not differ from baseline
- plasma cytokine levels [3]: unaffected
- LD100 [4]: 3 h
- Latent Period [4]: 1 h
- −2.5 Log10 [4]: 2.1 hours
- LD100 [5]: 5 h
- Latent Period [5]: 3 h
- −2.5 Log10 [5]: 4.2 hours
- LD100 [6]: 4 h
- Latent Period [6]: 3 h
- −2.5 Log10 [6]: 3.7 hours
- LD100 [7]: 5 h
- Latent Period [7]: 2 h
- −2.5 Log10 [7]: 4.1 hours
- LD100 [8]: 6 h
- Latent Period [8]: 3 h
- −2.5 Log10 [8]: 5.1 hours
- LD100 [9]: 4 h
- Latent Period [9]: 2 h
- −2.5 Log10 [9]: 2.8 hours
- LD100 [10]: 6 h
- Latent Period [10]: 4 h
- −2.5 Log10 [10]: 5.3 hours
- LD100 [11]: 5 h
- Latent Period [11]: 3 h
- −2.5 Log10 [11]: 4.2 hours
- LD100 [12]: 10 h
- Latent Period [12]: 7 h
- −2.5 Log10 [12]: 9.2 hours
- infectivity (plaque formation) [13]: capable of reducing the infectivity
- animals that died during the first 1-2 days ([14]; 300 ppm gNO, group of 10 rats): Six
- mortality ([14]; 400 ppm gNO): all of the animals died on the first day
- mortality ([14]; 500 ppm gNO): all of the animals died on the first day
- MetHb level ([14]; 500 ppm gNO): 67 percents
- deaths [15]: No deaths occurred
- antimicrobial effects [16]: potent antimicrobial effects
- pulmonary bioburden and leukocyte infiltration [17]: effective to reduce the pulmonary bioburden and leukocyte infiltration
